Test results from US20230355597A1, “COMPOUNDS, COMPOSITIONS, AND METHODS FOR THE TREATMENT AND PREVENTION OF AVIAN PATHOGENIC E. COLI (APEC)” (OHIO STATE INNOVATION FOUNDATION, priority 2018, published 2023).

Experiments:
[1] = test system: QS and virulence associated genes of APEC O78; experiment: qRT-PCR of QS-regulated and virulence factors genes; type: cell-based, avian pathogenic Escherichia coli (APEC); details: 100 µM, 10 h
APEC O1 in HD-11 cells = experiment: Intracellular survival assay (AI-2 inhibitors); details: O1, HD-11, 100 µM, 6 h
[2] = test system: AI-2 activity of APEC O78; experiment: AI-2 bioluminescence indicator assay (V. harveyi BB170); details: APEC O78, 100 µM
AI-2 activity of APEC O2 = experiment: as above; details: APEC O2, 100 µM
AI-2 activity of APEC O1 = experiment: as above; details: APEC O1, 100 µM
AI-2 activity of APEC O8 = experiment: as above; details: APEC O8, 100 µM
[3] = test system: AI-2 activity of APEC O15; experiment: as above; details: APEC O15, 100 µM
[4] = test system: AI-2 activity of APEC O18; experiment: as above; details: APEC O18, 100 µM
[5] = test system: AI-2 activity of APEC O35; experiment: as above; details: APEC O35, 100 µM
[6] = test system: AI-2 activity of APEC O109; experiment: as above; details: APEC O109, 100 µM
[7] = test system: AI-2 activity of APEC O115; experiment: as above; details: APEC O115, 100 µM
APEC O78 in HD-11 cells = experiment: Intracellular survival assay (AI-2 inhibitors); type: cell-based, avian pathogenic Escherichia coli (APEC); details: O78, HD-11, 100 µM, 6 h
Source text: Intracellular survival assay.

Caco-2 cells = experiment: LDH assay of AI-2 inhibitors; details: Caco-2, 100 µM, 24 h
APEC O2 in HD-11 cells = experiment: Intracellular survival assay (AI-2 inhibitors); details: O2, HD-11, 100 µM, 6 h
APEC O78 in THP-1 cells = experiment: Intracellular survival assay (AI-2 inhibitors); details: O78, THP-1, 100 µM, 6 h, vs DMSO
APEC O2 in THP-1 cells = experiment: Intracellular survival assay (AI-2 inhibitors); details: O2, THP-1, 100 µM, 6 h
Rif^r APEC O78 [8] = experiment: In vivo screening of quorum sensing inhibitors in APEC infected broiler chickens; details: for reduction in chicken mortality: DMSO control mortality normalized to 100%; for Mortality rate (%): oral gavage once a day, day 4 to day 8, DMSO control 66.7%; for Reduction in APEC lesions severity, Air-sacs (%) / Reduction in APEC lesions severity, Heart (%) / Reduction in APEC lesions severity, Liver (%) / Reduction in APEC lesions severity, Lung (%): vs DMSO treated control
[9] = test system: APEC O78 biofilm formation; experiment: Biofilm assay (crystal violet); type: cell-based, avian pathogenic Escherichia coli (APEC); details: 100 µM, 48 h
Protocol: Biofilm assay. […] Briefly, APEC O78 was grown in LB broth in the presence of 100 µM of each compound in a 96-well plate at 37° C. for 10 h. The culture was then diluted 1:100 in fresh LB broth. The biofilm assay was performed in 96-well plate contain 150 µL of the diluted culture and 100 µM of each compound. The plate was then incubated aerobically without shaking at 37° C. for 48 h, washed twice with PBS to remove the non-adherent cells and stained with 200 µL of 0.1% CV in water at room temperature for 10 min. The plate was washed with PBS and biofilm was quantified by measuring the absorbance at 550 nm after solubilizing the CV in 200 µL of 30% acetic acid in water for 15 min.

Rif^r APEC O78 [10] = experiment: Wax moth (Galleria mellonella) larva infection model (AI-2 inhibitors); details: 72 h post treatment

Structure (SMILES) | Inhibition % of AI-2 activity [2] | Inhibition % of AI-2 activity (AI-2 activity of APEC O2) | Inhibition % of AI-2 activity (AI-2 activity of APEC O1) | Inhibition % of AI-2 activity (AI-2 activity of APEC O8) | Inhibition % of AI-2 activity [3] | Inhibition % of AI-2 activity [4] | Inhibition % of AI-2 activity [5] | Inhibition % of AI-2 activity [6] | Inhibition % of AI-2 activity [7] | reduction in chicken mortality (Rif^r APEC O78 [8]) | Mortality rate (%) (Rif^r APEC O78 [8]) | Reduction in APEC lesions severity, Air-sacs (%) (Rif^r APEC O78 [8]) | Reduction in APEC lesions severity, Heart (%) (Rif^r APEC O78 [8]) | Reduction in APEC lesions severity, Liver (%) (Rif^r APEC O78 [8]) | Reduction in APEC lesions severity, Lung (%) (Rif^r APEC O78 [8]) | further results
NC(=O)c1ccccc1Nc1cccc(C(F)(F)F)c1 [C3, 2-[[3-(trifuoromethyl)phenyl]amino]benzamide] | 78% | 54% | 65% | 39% | 0% | 8% | 37% | 0% | 35% | – | – | – | – | – | – | expression of fpr [1]: down-regulated; clearance of intracellular APEC (APEC O1 in HD-11 cells): 100%; reduction of intracellular survival (APEC O1 in HD-11 cells; vs DMSO): 4 logs
OCCC1CN(C2CCN(c3ccccc3)CC2)CCN1CCCc1ccccc1 (stereo not drawn) [C10] | 84% | 89% | 64% | 0% | 22% | 35% | 47% | 57% | – | 75% | 16.6% | 88.9% | 83.3% | 100% | 100% | clearance of intracellular APEC (APEC O78 in HD-11 cells): 100%; reduction of intracellular survival (APEC O78 in HD-11 cells; vs DMSO): 4 logs; expression of fliP [1]: down-regulated; toxicity (LDH) (Caco-2 cells): 27%; clearance of intracellular APEC (APEC O2 in HD-11 cells): 100%; reduction of intracellular survival (APEC O2 in HD-11 cells; vs DMSO): 3.3 logs; reduction of intracellular survival (APEC O78 in THP-1 cells): up to 0.7 logs; clearance of intracellular APEC (APEC O2 in THP-1 cells): 100%; reduction of intracellular survival (APEC O2 in THP-1 cells; vs DMSO): 4 logs; average lesion score reduction (Rif^r APEC O78 [8]; liver, heart, lung and airsac, vs DMSO): 1.5-2.3; reduction of bacterial load in internal organs (Rif^r APEC O78 [8]; liver, lung, heart, and kidney, vs DMSO control, 'up to'): 3.4-4.3 log CFU/g
COCCN1CCC(CN(Cc2ccncc2)Cc2ccccc2Cl)CC1 [C1, {2-chlorobenzyl)([1(2-methoxyethyly-4-piperidinyl]methyl)4-pyridinyimethyl)amine] | 84% | 94% | – | 20% | 13% | 37% | 48% | 65% | 64% | 25% | 50% | 26.7% | 0% | 0% | 66.7% | induction of biofilm formation of APEC O78 [9]: up to 100%; expression of murD [1]: down-regulated; larval death (Rif^r APEC O78 [10]): no larval death
